According to article PMC5537305, “Photo-enhanced Aqueous Solubilization of an Azo-compound” (Scientific Reports, 2017):
Several values for one entry are separate records, joined by “and”; a condition that tells them apart may be missing. Equal entries are not always repeated. Where two headings read alike, the source gives them in different places.

What was measured:
[1] = Photoinduced cis-trans isomerization of 3 in water containing 1% MeOH (HPLC peak areas); format: physicochemical
Method: To confirm the potential usefulness of this strategy for improving aqueous solubility, we focused on kinase inhibitor 3 [31] (Fig. S2) as representative of pharmaceutical compounds, because the 518 human protein kinases include important drug targets, and the molecular structures of many kinase inhibitors tend to be rather similar. […]
Table S2. Photoinduced isomerization of 3
Light Time (min) cis ratio (%) trans ratio (%)
Compound 3 (10 µM) in a mixture of water and MeOH (1%) was successively exposed to white light and to a 365 nm mercury lamp (0.5 mW/cm2). The cis-trans ratio was calculated from the peak areas in HPLC. […]
Physicochemical properties
The UV-visible absorption spectra of the cis and trans isomers were determined on a UV-visible spectrometer (Shimano, UV-2400PC). Sample solutions in quartz cells were irradiated with a 365 nm mercury lamp (4 W, UVP compact UV lamp, 0.5 mW/cm2), LED UV light (3.3 W, CCS HLV-24UV365-4WNRBTNJ, 344 mW/cm2), or white LED light (5 W, Nikki Trading Corp., NLSS05BM, 68 and 54 mW/cm2 at 450 and 540 nm, respectively) for the indicated times at room temperature. […]

[2] = Aqueous solubilization in 1/15 M phosphate buffer (pH 7.4) under UV, visible light or dark, with cis ratio in solution by HPLC; format: physicochemical; conditions: for increase of aqueous solubilization, UV irradiation vs dark: mercury lamp 0.5 mW/cm2; for Aqueous solubilized 3: successive irradiations
Method: Table S3. Cis ratio and aqueous solubilization of 3 under UV irradiation, under visible light irradiation, and in […]
Compound 3 was shaken at 37 °C under UV irradiation, under visible light irradiation, and in the dark. UV irradiation was performed with a mercury lamp (0.5 mW/cm2). Cis ratio in the aqueous solution was evaluated from the peak areas in HPLC immediately after filtration.
Table S4. Aqueous solubilization and cis ratio of 3 under irradiation at various wavelengths through filters of […]
Illumination was performed with a xenon lamp using repeated cycles of irradiation and shaking (5000 flashes, then shaking for 10 sec) through filters of various bandwidths at room temperature (20-22 °C) for 1 h. The cis ratio in the aqueous solution was evaluated by HPLC immediately after filtration, based on peak area.
Table S5. Aqueous solubilization of 3 under UV irradiation at various intensity levels.
Sample irradiation was conducted using 365 nm LED light (max light intensity: 290 mW/cm2) at 37 °C for 1 […]
Sample irradiations were conducted with the white light through a filter cutting off wavelengths below 560 nm, or with 365 nm LED light (344 mW/cm2) at 37 °C for 1 h.
Table S7. Aqueous dissolution of UV-irradiated crystals of 3 measured in the dark, and the cis ratio contained […]
Crystals of 3 were irradiated with 365 nm LED light (344 mW/cm2) at 37 °C for 3 h.
The UV-irradiated crystals and unirradiated crystals were each shaken in phosphate buffer in the dark at 37 °C for 1 h.
Physicochemical properties […]
Compound 3 (about 0.2 mg) was ground and taken up in 1/15 M phosphate buffer (pH 7.4, 1.0 mL) in a 10 mL glass tube. The suspension was incubated under ultrasound irradiation for 10 min, and shaken in a temperature controllable incubator located in a dark room for the indicated time at the indicated temperature.
With shaking on a plate shaker, a sample was irradiated with a 365 nm mercury lamp (4 W, UVP compact […]
white LED light (5 W, Nikki Trading Corp., NLSS05BM, 68 and 54 mW/cm2 at 450 and 540 nm, respectively) through a filter cutting off wavelengths below 560 nm (Atto Corp. YA-3). Irradiation was done from the top of the sample glass tube. Then, the suspension was filtered through a Millipore Millex-LG (0.20 […]
For irradiation at various UV wavelengths, 3 (about 0.1 mg) was ground and taken up in 1/15 M phosphate buffer (pH 7.4, 0.2 mL) in a well of a 96-well white plate. Illumination over a range of wavelength from 355-540 nm was performed using a plate reader EnVision equipped with a xenon flash lamp (35 W, 500 Hz), with excitation filters of appropriate bandwidths.

[3] = 10 µM in water/MeOH (1%), step 1: visible (white light) 10 min
[4] = step 2: UV 365 nm mercury lamp 0.5 mW/cm2, 10 min
[5] = step 4: UV 10 min (second UV exposure)

cis ratio [1, 3]: 20.3%
trans ratio [1, 3]: 79.7%
cis ratio [1, 4]: 84.8%
trans ratio [1, 4]: 15.2%
cis ratio ([1]; step 3: visible 12 min): 18.3%
trans ratio ([1]; step 3: visible 12 min): 81.7%
cis ratio [1, 5]: 86.9%
trans ratio [1, 5]: 13.1%
cis ratio ([1]; step 5: visible 20 min): 19.4%
trans ratio ([1]; step 5: visible 20 min): 80.6%
cis ratio in solution after UV irradiation ([2]; 365 nm LED, roughly constant, independent of light intensity): ~90%
increase of aqueous solubilization, UV irradiation vs dark ([2]; 0.5 h, 37 °C): 3.5 fold
increase of aqueous solubilization, UV irradiation vs dark ([2]; 1 h, 37 °C): 5.0 fold
increase of aqueous solubilization, UV irradiation vs dark ([2]; 5 h, 37 °C): 7.1 fold and 7 fold
cis ratio ([2]; Dark, 37 °C, shake time 0.5 h): 6%
cis ratio ([2]; Dark, 37 °C, shake time 1 h): 4%
cis ratio ([2]; Dark, 37 °C, shake time 5 h): 7%
cis ratio ([2]; UV light (mercury lamp 0.5 mW/cm2), 37 °C, shake time 0.5 h): 77%
cis ratio ([2]; UV light (mercury lamp 0.5 mW/cm2), 37 °C, shake time 1 h): 80%
cis ratio ([2]; UV light (mercury lamp 0.5 mW/cm2), 37 °C, shake time 3 h): 80%
cis ratio ([2]; UV light (mercury lamp 0.5 mW/cm2), 37 °C, shake time 5 h): 75%
cis ratio ([2]; UV light (mercury lamp 0.5 mW/cm2), 37 °C, shake time 8 h): 87%
cis ratio ([2]; Visible light, 37 °C, shake time 1 h): 25%
cis ratio ([2]; Visible light, 37 °C, shake time 5 h): 25%
cis ratio ([2]; light intensity 0.00 mW/cm2, 365 nm LED, 37 °C, 1 h): 4%
cis ratio ([2]; light intensity 4.56 mW/cm2, 365 nm LED, 37 °C, 1 h): 89%
cis ratio ([2]; light intensity 29.0 mW/cm2, 365 nm LED, 37 °C, 1 h): 92%
cis ratio ([2]; light intensity 290 mW/cm2, 365 nm LED, 37 °C, 1 h): 90%
increase of aqueous solubilization compared with the dark condition ([2]; maximum irradiation intensity 290 mW/cm2, 365 nm LED, 37 °C, 1 h): 23 fold
increase of aqueous solubilization by exposure to UV light ([2]; phosphate buffer, compared to without irradiation, up to): up to 20 fold
solubility at 1 h ([2]; phosphate buffer, pH 7.4, 46 °C, after 1 h, read-out: aqueous solubility): 3.5 µg/mL
solubility at 24 h ([2]; phosphate buffer, pH 7.4, 46 °C, after 24 h): 3.2 µg/mL
solubility at 1 h ([2]; phosphate buffer, pH 7.4, Dark, 37 °C, shake time 1 h, read-out: Solubility): 3 µg/mL
solubility at 0.5 h ([2]; phosphate buffer, pH 7.4, UV light (mercury lamp 0.5 mW/cm2), 37 °C, shake time 0.5 h, read-out: Solubilized 3): 11.1 µg/mL
solubility at 1 h ([2]; phosphate buffer, pH 7.4, UV light (mercury lamp 0.5 mW/cm2), 37 °C, shake time 1 h, read-out: Solubilized 3): 14.9 µg/mL
solubility at 3 h ([2]; phosphate buffer, pH 7.4, UV light (mercury lamp 0.5 mW/cm2), 37 °C, shake time 3 h, read-out: Solubilized 3): 18.4 µg/mL
solubility at 5 h ([2]; phosphate buffer, pH 7.4, UV light (mercury lamp 0.5 mW/cm2), 37 °C, shake time 5 h, read-out: Solubilized 3): 24.7 µg/mL
solubility at 8 h ([2]; phosphate buffer, pH 7.4, UV light (mercury lamp 0.5 mW/cm2), 37 °C, shake time 8 h, read-out: Solubilized 3): 24.2 µg/mL
solubility at 1 h ([2]; phosphate buffer, pH 7.4, Visible light, 37 °C, shake time 1 h, read-out: Solubilized 3): 4.6 µg/mL
solubility at 5 h ([2]; phosphate buffer, pH 7.4, Visible light, 37 °C, shake time 5 h, read-out: Solubilized 3): 5.1 µg/mL
solubility at 1 h ([2]; phosphate buffer, pH 7.4, light intensity 4.56 mW/cm2, 365 nm LED, 37 °C, 1 h, read-out: Aqueous solubilized 3): 12.3 µg/mL
solubility at 1 h ([2]; phosphate buffer, pH 7.4, light intensity 29.0 mW/cm2, 365 nm LED, 37 °C, 1 h, read-out: Aqueous solubilized 3): 36.2 µg/mL
solubility at 1 h ([2]; phosphate buffer, pH 7.4, light intensity 290 mW/cm2, 365 nm LED, 37 °C, 1 h, read-out: Aqueous solubilized 3): 69.6 µg/mL
solubility ([2]; phosphate buffer, pH 7.4, phosphate buffer, in the dark, after 0.5, 1 and 5 h at 37 °C, read-out: aqueous solubility): ~3 µg/mL
solubility ([2]; phosphate buffer, pH 7.4, white-light irradiation, after 1 and 5 h, 37 °C, read-out: solubilization): ~5 µg/mL
Aqueous solubilized 3 ([2]; step 1: visible (white light, filter cutting off below 560 nm), 37 °C, 1 h): 1.0 fold
Aqueous solubilized 3 ([2]; step 2: UV 365 nm LED 344 mW/cm2, 37 °C, 1 h): 35.5 fold
Aqueous solubilized 3 ([2]; step 3: visible, 37 °C, 1 h): 2.3 fold
Aqueous solubilized 3 ([2]; step 4: UV 365 nm LED 344 mW/cm2, 37 °C, 1 h): 37.9 fold
Aqueous solubilized 3 ([2]; step 5: visible, 37 °C, 1 h): 2.9 fold
Structure (SMILES): CC(C)n1nc(/N=N/c2ccccc2)c2c(N)ncnc21 [Compound 3]
